*1 amine or outer side, *2 acyl side, *3 side chain or, on linkers, in order; H or OH if unused. Where a SMILES comes first, the peptide text is derived from it. [ ]: non-standard residue; d: D form. X3 = O=C(CC[C@H](Cc1ccc(O)cc1)N[*:1])[*:2]; Oic = O=C(O)[C@@H]1C[C@@H]2CCCC[C@@H]2N1; Gly(octyl) = CCCCCCCC[C@H](N)C(=O)O; N(CH2CH2COOH)Gly = O=C(O)CCNCC(=O)O; Aad = N[C@@H](CCCC(=O)O)C(=O)O; aThr = C[C@H](O)[C@H](N)C(=O)O; hSer = N[C@@H](CCO)C(=O)O; Dab = NCC[C@H](N)C(=O)O; Dap = NC[C@H](N)C(=O)O
Experiments:
Type in all cases: biochemical
[1] = target: T1, human neutrophil elastase (Homo sapiens, UniProt P08246); test: Inhibition of human neutrophil elastase (hydrolysis of MeOSuc-AAPV-pNA); conditions: substrate MeOSuc-AAPV-pNA 0.3 mM, enzyme 10 nM, 37° C., pH 8; read-out: Human neutrophil elastase (hNE) IC50
T1 construct: purchased Serva Electrophoresis, Germany
T1 sequence (P08246 30-267): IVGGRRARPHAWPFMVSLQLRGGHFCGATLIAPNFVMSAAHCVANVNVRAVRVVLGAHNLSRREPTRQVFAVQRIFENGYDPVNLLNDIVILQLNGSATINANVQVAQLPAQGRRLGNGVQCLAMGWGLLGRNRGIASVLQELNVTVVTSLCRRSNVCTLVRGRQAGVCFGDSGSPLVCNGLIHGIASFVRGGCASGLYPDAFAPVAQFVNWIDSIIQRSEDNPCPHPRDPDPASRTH
Method: 2.2 Inhibition of Human Neutrophil Elastase
The ability of the peptides of the invention to inhibit the hydrolysis activity of human neutrophil elastase (Serva Electrophoresis, Germany) using the synthetic tetrapeptidic substrate MeOSuc-AAPV-pNA (Bachem, Switzerland) was determined as follows:
(§1) The above substrate (0.3 mM) and human neutrophil elastase (10 nM) were incubated at 37° C. with serial dilutions of the peptides (1% DMSO final) in assay buffer (50 mM Tris, pH 8, 300 mM NaCl, 0.01% Tween20). The release of pNA was followed by monitoring the change in absorbance at 405 nm for 30 minutes. Control assays with the same assay set-up as above, but without peptide, ran linearly. The dose-response data were fitted to the 4-parameter Hill equation providing the IC50 value using Graphpad (Prism 5).

[2] = target: T2, porcine pancreatic elastase (Sus scrofa, UniProt P00772); test: Inhibition of porcine pancreatic elastase (hydrolysis of MeOSuc-AAA-pNA); conditions: for hNE/PPE selectivity: ratio of PPE IC50 to hNE IC50; for IC50: substrate MeOSuc-AAA-pNA 1 mM, enzyme 15 nM, 37° C., pH8, read-out: Porcine pancreatic elastase (PPE) IC50
T2 construct: purchased Sigma, USA
Method: 2.3 Inhibition of Porcine Pancreatic Elastase
The ability of the peptides of the invention to inhibit the hydrolysis activity of porcine pancreatic elastase (Sigma, USA) using the synthetic tripeptidic substrate MeOSuc-AAA-pNA (Bachem, Switzerland) was determined as follows:
as §1, with “(1” for “(0.3”, “porcine pancreatic” for “neutrophil”, “(15” for “(10”, “(0.5%” for “(1%”, “pH8, 100” for “pH 8, 300”

human proteinase 3 = target: T3, human proteinase 3 (Homo sapiens, UniProt P24158); test: Inhibition of human proteinase 3 (substrate Boc-Ala-Ala-Nva-SBzl); conditions: for hNE/hPr3 selectivity: ratio of hPr3 IC50 to hNE IC50; for IC50: substrate Boc-Ala-Ala-Nva-SBzl 1 mM, enzyme 10 nM, 37° C., pH7.4, read-out: Human proteinase 3 (hPr3) IC50
T3 construct: purchased Elastin Products Company, USA
T3 sequence (P24158 28-248): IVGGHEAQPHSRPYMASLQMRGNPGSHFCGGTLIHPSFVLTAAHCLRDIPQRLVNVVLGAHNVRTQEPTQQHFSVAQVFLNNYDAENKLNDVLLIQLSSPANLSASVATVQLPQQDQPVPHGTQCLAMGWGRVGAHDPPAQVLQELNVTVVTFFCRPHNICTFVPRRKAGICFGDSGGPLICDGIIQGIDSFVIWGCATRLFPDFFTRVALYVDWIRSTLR
Method: 2.4 Inhibition of Human Proteinase 3
The inactivation of human proteinase 3 (Elastin Products Company, USA) by the peptides of the invention using synthetic tripeptidic substrate Boc-Ala-Ala-Nva-SBzl (Elastin Products Company, USA) was determined as follows:
as §1, with “(1 mM), 4,4′-dithiodipyridine (250 μM)” for “(0.3 mM)”, “proteinase 3” for “neutrophil elastase”, “(0.5%” for “(1%”, “pH7.4, 150” for “pH 8, 300”, “reaction process” for “release of pNA”, “340” for “405”

T2 sequence (P00772 27-266): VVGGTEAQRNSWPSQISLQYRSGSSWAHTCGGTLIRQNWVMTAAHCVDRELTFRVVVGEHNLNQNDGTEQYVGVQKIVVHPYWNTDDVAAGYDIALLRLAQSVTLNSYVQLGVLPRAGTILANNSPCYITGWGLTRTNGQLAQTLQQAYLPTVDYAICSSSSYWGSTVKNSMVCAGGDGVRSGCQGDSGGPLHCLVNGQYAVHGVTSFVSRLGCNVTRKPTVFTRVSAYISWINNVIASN

Row | Compound | IC50 [1] [nM] | hNE/PPE selectivity [2] | IC50 [2] [nM] | hNE/hPr3 selectivity (human proteinase 3) | IC50 (human proteinase 3) [nM]
1 | CCCCCCCC[C@@H]1NC(=O)[C@@H]2CCCN2C(=O)[C@H]2CCCN2C(=O)[C@H](CCOC)NC(=O)[C@H](CCCCN)NC(=O)[C@H](CCC(N)=O)NC(=O)[C@@H]2CCCN2C(=O)[C@@H]2CCCN2C(=O)[C@H]([C@@H](C)CC)NC(=O)[C@H](CO)NC(=O)[C@H](C)NC(=O)[C@H]([C@@H](C)O)NC(=O)[C@H](CCC(=O)O)NC1=O [Example 1, Cyclo(-OctGly-Glu-Thr-Ala-Ser-Ile-Pro-Pro-Gln-Lys-hSer(Me)-^DPro-Pro-)] (cyclo([Gly(octyl)]ETASIPPQK[hSer](Me)[dP]P)) | 4.8 | 129 | 620 | 150 | 720
2 | CCCCCCCC[C@@H]1NC(=O)[C@@H]2CCCN2C(=O)[C@H]2CCCN2C(=O)[C@H](CN)NC(=O)[C@H](CCCCN)NC(=O)[C@H](CCC(N)=O)NC(=O)[C@@H]2CCCN2C(=O)[C@@H]2CCCN2C(=O)[C@H]([C@@H](C)CC)NC(=O)[C@H](CO)NC(=O)[C@H](C)NC(=O)[C@H]([C@@H](C)O)NC(=O)[C@H](CCC(=O)O)NC1=O [Example 2, Cyclo(-OctGly-Glu-Thr-Ala-Ser-Ile-Pro-Pro-Gln-Lys-Dap-^DPro-Pro-)] (cyclo([Gly(octyl)]ETASIPPQK[Dap][dP]P)) | 5.5 | 218 | 1200 | 644 | 3540
3 | CCCCCCCC[C@@H]1NC(=O)[C@@H]2CCCN2C(=O)[C@H]2CCCN2C(=O)CC[C@H](Cc2ccc(O)cc2)NC(=O)[C@H](CCCCN)NC(=O)[C@H](CCC(N)=O)NC(=O)[C@@H]2CCCN2C(=O)[C@@H]2CCCN2C(=O)[C@H]([C@@H](C)CC)NC(=O)[C@H](CO)NC(=O)[C@H](C)NC(=O)[C@H]([C@@H](C)O)NC(=O)[C@H](CCC(=O)O)NC1=O [Example 8, Cyclo(-OctGly-Glu-Thr-Ala-Ser-Ile-Pro-Pro-Gln-Lys-[H-γ^4-DiHTyr-OH]-^DPro-Pro-)] (cyclo([Gly(octyl)]ETASIPPQK[X3][dP]P)) | 19.8 | 91 | 1810 | 168 | 3330
4 | CC[C@H](C)[C@@H]1NC(=O)[C@H](CO)NC(=O)[C@H](C)NC(=O)[C@H]([C@@H](C)O)NC(=O)[C@H](CCC(=O)O)NC(=O)[C@H](CCNC(=O)[C@@H](N)Cc2ccccc2)NC(=O)[C@@H]2CCCN2C(=O)[C@H]2CCCN2C(=O)[C@H](Cc2ccc(O)cc2)NC(=O)[C@H](CCCCN)NC(=O)[C@H](CCC(N)=O)NC(=O)[C@@H]2CCCN2C(=O)[C@@H]2CCCN2C1=O [Example 9, Cyclo(-Dab(Phe)-Glu-Thr-Ala-Ser-Ile-Pro-Pro-Gln-Lys-Tyr-^DPro-Pro-)] (cyclo([Dab](Phe)ETASIPPQKY[dP]P)) | 17.3 | 215 | 3720 | 711 | 12300

Second part, the compound after the results:

Row | IC50 [1] [nM] | hNE/PPE selectivity [2] | IC50 [2] [nM] | hNE/hPr3 selectivity (human proteinase 3) | IC50 (human proteinase 3) [nM] | Compound
5 | 6.8 | 209 | 1420 | 149 | 1010 | CCCCCCCC[C@@H]1NC(=O)[C@@H]2CCCN2C(=O)[C@H]2CCCN2C(=O)[C@H]([C@H](C)O)NC(=O)[C@H](CCCCN)NC(=O)[C@H](CCC(N)=O)NC(=O)[C@@H]2CCCN2C(=O)[C@@H]2CCCN2C(=O)[C@H]([C@@H](C)CC)NC(=O)[C@H](CO)NC(=O)[C@H](C)NC(=O)[C@H]([C@@H](C)O)NC(=O)[C@H](CCC(=O)O)NC1=O [Example 3, Cyclo(-OctGly-Glu-Thr-Ala-Ser-Ile-Pro-Pro-Gln-Lys-alloThr-^DPro-Pro-)] (cyclo([Gly(octyl)]ETASIPPQK[aThr][dP]P))
6 | 8.6 | 157 | 1350 | 119 | 1020 | CCCCCCCC[C@@H]1NC(=O)[C@@H]2CCCN2C(=O)[C@H]2CCCN2C(=O)[C@H](CCO)NC(=O)[C@H](CCCCN)NC(=O)[C@H](CCC(N)=O)NC(=O)[C@@H]2CCCN2C(=O)[C@@H]2CCCN2C(=O)[C@H]([C@@H](C)CC)NC(=O)[C@H](CO)NC(=O)[C@H](C)NC(=O)[C@H]([C@@H](C)O)NC(=O)[C@H](CCC(=O)O)NC1=O [Example 4, Cyclo(-OctGly-Glu-Thr-Ala-Ser-Ile-Pro-Pro-Gln-Lys-hSer-^DPro-Pro-)] (cyclo([Gly(octyl)]ETASIPPQK[hSer][dP]P))
7 | 9.9 | 161 | 1590 | 237 | 2350 | CCCCCCCC[C@@H]1NC(=O)[C@@H]2CCCN2C(=O)[C@H]2CCCN2C(=O)[C@H](CCCC(N)=O)NC(=O)[C@H](CCCCN)NC(=O)[C@H](CCC(N)=O)NC(=O)[C@@H]2CCCN2C(=O)[C@@H]2CCCN2C(=O)[C@H]([C@@H](C)CC)NC(=O)[C@H](CO)NC(=O)[C@H](C)NC(=O)[C@H]([C@@H](C)O)NC(=O)[C@H](CCC(=O)O)NC1=O [Example 5, Cyclo(-OctGly-Glu-Thr-Ala-Ser-Ile-Pro-Pro-Gln-Lys-hGln-^DPro-Pro-)] (cyclo([Gly(octyl)]ETASIPPQK[Aad](NH2)[dP]P))
8 | 12 | 321 | 3850 | 372 | 4460 | CCCCCCCC[C@@H]1NC(=O)[C@@H]2C[C@@H]3CCCC[C@@H]3N2C(=O)[C@H]2CCCN2C(=O)[C@H]([C@@H](C)O)NC(=O)[C@H](CCCCN)NC(=O)[C@H](CCC(N)=O)NC(=O)[C@@H]2CCCN2C(=O)[C@@H]2CCCN2C(=O)[C@H]([C@@H](C)CC)NC(=O)[C@H](CO)NC(=O)[C@H](C)NC(=O)[C@H]([C@@H](C)O)NC(=O)[C@H](CCC(=O)O)NC1=O [Example 6, Cyclo(-OctGly-Glu-Thr-Ala-Ser-Ile-Pro-Pro-Gln-Lys-Thr-^DPro-Oic-)] (cyclo([Gly(octyl)]ETASIPPQKT[dP][Oic]))
9 | 13.3 | 295 | 3920 | 305 | 4060 | CCCCCCCC[C@@H]1NC(=O)[C@@H]2CCCN2C(=O)[C@H]2CCCN2C(=O)[C@H]([C@@H](C)O)NC(=O)[C@H](CCCCN)NC(=O)[C@H](CCC(N)=O)NC(=O)[C@@H]2CCCN2C(=O)CN(CCC(=O)O)C(=O)[C@H]([C@@H](C)CC)NC(=O)[C@H](CO)NC(=O)[C@H](C)NC(=O)[C@H]([C@@H](C)O)NC(=O)[C@H](CCC(=O)O)NC1=O [Example 7, Cyclo(-OctGly-Glu-Thr-Ala-Ser-Ile-Nglu-Pro-Gln-Lys-Thr-^DPro-Pro-)] (cyclo([Gly(octyl)]ETASI[N(CH2CH2COOH)Gly]PQKT[dP]P))
10 | 7.3 | 4959 | 36200 | >13699 | > 100000 | CCCCCCCC[C@@H]1NC(=O)[C@@H]2CCCN2C(=O)[C@H]2CCCN2C(=O)[C@H]([C@@H](C)O)NC(=O)[C@H](CCCCN)NC(=O)[C@H](CCC(N)=O)NC(=O)[C@@H]2C[C@@H]3CCCC[C@@H]3N2C(=O)[C@@H]2CCCN2C(=O)[C@H]([C@@H](C)CC)NC(=O)[C@H](CO)NC(=O)[C@H](C)NC(=O)[C@H]([C@@H](C)O)NC(=O)[C@H](CCC(=O)O)NC1=O [Example 10, Cyclo(-OctGly-Glu-Thr-Ala-Ser-Ile-Pro-Oic-GI n-Lys-Thr-^DPro-Pro-)] (cyclo([Gly(octyl)]ETASIP[Oic]QKT[dP]P))
